# Measured values: paper PMC10454726 (International Journal of Molecular Sciences, 2023)
# Tests used:
# [1] = tested on: streptozotocin-induced diabetic rats; settings: cited from earlier work
# [2] = Cytotoxic effect on Human Foreskin fibroblasts (SRB); format: cell-based; settings: HFF-1 human foreskin fibroblasts, HFF-1 cells
# Protocol: However, at high concentrations, they can be harmful to cells. For humans, doses less than 100 mg/day are considered safe. […] Therefore, we conducted cytotoxicity assays on Human Foreskin fibroblasts (HFF-1) and an AOT on female Wistar rats to assess their safety.
# In a 96-well plate, 7000 cells per well of Human Foreskin fibroblasts (HFF-1) were cultured. […] Untreated cells were also included as a negative control. At the end of the incubation period, the cell contents were precipitated with 50 µL of a 50% aqueous solution of trichloroacetic acid (TCA) at 4 °C for 1 h. The supernatant was discarded and washed 5 times with distilled water. Afterward, the plates were allowed to dry at room temperature. The cell contents were incubated with 100 µL of a 0.04% sulforhodamine B (SRB) solution for 1 h at room temperature. The excess SRB was removed by washing with a 1% aqueous acetic acid solution. […] With the data obtained, the viability of treated cells was calculated by comparing the control without treatment. CC50 value was determined by employing BioStat Pro 5.9.8 software (AnalystSoft Inc., Brandon, FL, USA).
# [3] = cited from earlier work
# [4] = tested on: humans; settings: cited from earlier work
# [5] = cited from earlier work; remark: listed apart in the source
# [6] = tested on: streptozotocin-induced diabetic rats; test: Oral glucose tolerance test in streptozotocin-induced diabetic rats; format: in vivo, Wistar rat; parameters: AUC of the OGTT: unit not given here; settings: for glucose blood levels in OGTT compared to untreated animals: after 14 days of administration, ANOVA/Bonferroni
# Protocol: (§1) After a week of acclimation, 35 male Wistar rats were given a single intraperitoneal dose of STZ (Sigma Chemical Co. Toluca, Estado de México, Mexico) at a dosage of 45 mg/kg of body weight, after fasting for 12 h overnight with free access to water. To prevent initial drug-induced hypoglycemia mortality, these animals were given a 10% sucrose solution 24 h after administration. STZ was dissolved in 0.1 M of sodium citrate buffer (pH 4.5) and administered in a final volume of 5 mL/kg. A week after STZ injection, diabetes in streptozotocin rats was confirmed by measuring fasting blood glucose (by glucose oxidase method). Animals with a blood glucose (tail vein) above 126 mg/dL were considered diabetic and used for the experiment to create groups 2, 3, 4, 5, 6, and 7 [1, 13]. Blood glucose levels were measured using a glucometer (Accu-Chek Active, Roche, Mannheim, Germany) and reactive strips (Accu-Chek Active Glucose test strips, Roche). The presence of hyperglycemia and insulin level confirmed a model very similar to T2D in humans. For the pharmacological study, the final number of animals was 35 male rats, with 3 rats being sacrificed during the treatment stage. One was administered with FC-114 and two with acarbose. The first rat was damaged during oral glucose administration in the OGTT at week 5, and the other rats had gastrointestinal complications in week 7.
# (§2) The diabetic animals in group 2 (untreated) were given 4% v/v aqueous EtOH solution (vehicle of treatments) in a volume of 6.5 mL/kg body weight. The other groups (3–7) received different treatments for 14 days (weeks 5 to 7). […] All of the treatments were at equimolar doses of PIO and adjusted to the weekly weight of each rat. […] The commercial PIO tablet (30 mg) was crushed in 7.5 mL of vehicle and given to each animal in 4.0 mg/mL of suspension. The FC-114 and FC-122 suspensions were created at 6.2 and 6.0 mg/mL, respectively. The commercial acarbose tablet (50 mg) was crushed in 7.5 mL of the vehicle and given to each animal in a suspension of 6.6 mg/mL. Each suspension was used within 2 days of its preparation, and the administration volume was near to 2.5 mL for each rat.
# The OGTT was carried out in weeks 3, 4, 5, 6, and 7. Prior to the OGTT, all animal groups fasted overnight for eight hours with free access to water. Each rat was weighed and then received a 2 g/kg glucose overload orally and blood samples were taken from the tail vein [13, 97]. Glucose levels were measured using a glucometer (Accu-Chek Active, Roche, Mannheim, Germany) at 0, 30, 60, 90, 120, and 180 min after glucose administration. The AUC of the OGTT was calculated using the blood glucose concentration over time and the GraphPad Prism 8.0.1 software package (GraphPad Software; Science Inc., San Diego, CA, USA) was used to compare the effectiveness of the treatments.
# [7] = tested on: streptozotocin-induced diabetic rats; test: Animal weight, food and water consumption in streptozotocin-induced diabetic rats; format: in vivo, Wistar rat; settings: 14 days of treatment, weeks 5 to 7
# Protocol: Six female (three for each compound: FC-114 and FC-122) (220 ± 10 g, for the acute toxicity assay) and forty male (215 ± 20 g, for the pharmacologic study) albino Wistar rats were acquired from the Isolation and Animal Facility Unit, Facultad de Estudios Superiores Cuautitlán (FESC), Universidad Nacional Autónoma de México (UNAM). They were kept in standard polypropylene boxes under controlled temperature (24 ± 4 °C) on a 12 h light/dark cycle and provided conventional food (formula 5001, Rat Chow) and purified water ad libitum. […] At the end of the experiment, the animals were taken to the humanitarian endpoint by the intraperitoneal (ip) administration of 75 mg/kg of sodium pentobarbital to perform a necropsy in the bioterium of FESC, UNAM. During the necropsy, blood serum was extracted to quantify glucose, triacylglycerides, cholesterol, and insulin. The study was conducted based on the guidelines of the Declaration of Helsinki and approved by the Institutional Review Board: Internal Committee for the Care and Use of Experimentation Animals (CICUAE, according to the initials in Spanish, C23_02 on March 2023) of the FESC UNAM (Mexico). It complies with the Mexican norm for this matter (NOM-062-ZOO-1999, Technical Specifications for the Production, Care, and Use of Laboratory Animals, SAGARPA), as well as the Guide for the Care and Use of Laboratory Animals of the National Research Council and National Institutes of Health (NIH Publications No. 8023, revised 1978).
# as §1, §2
# [8] = tested on: streptozotocin-induced diabetic rats; test: Weekly fasting glucose in streptozotocin-induced diabetic rats; format: in vivo, Wistar rat; settings: after 7 and 14 days of treatment (weeks 6 and 7)
# Protocol: as §1, §2
# [9] = molecular target: α-glucosidase from Rominococcus obeum (Blautia obeum, UniProt A5ZY13); test: Enzymatic kinetics of α-glucosidase inhibition (pNPG substrate); format: biochemical
# α-glucosidase from Rominococcus obeum, sequence (A5ZY13 entry or part of it): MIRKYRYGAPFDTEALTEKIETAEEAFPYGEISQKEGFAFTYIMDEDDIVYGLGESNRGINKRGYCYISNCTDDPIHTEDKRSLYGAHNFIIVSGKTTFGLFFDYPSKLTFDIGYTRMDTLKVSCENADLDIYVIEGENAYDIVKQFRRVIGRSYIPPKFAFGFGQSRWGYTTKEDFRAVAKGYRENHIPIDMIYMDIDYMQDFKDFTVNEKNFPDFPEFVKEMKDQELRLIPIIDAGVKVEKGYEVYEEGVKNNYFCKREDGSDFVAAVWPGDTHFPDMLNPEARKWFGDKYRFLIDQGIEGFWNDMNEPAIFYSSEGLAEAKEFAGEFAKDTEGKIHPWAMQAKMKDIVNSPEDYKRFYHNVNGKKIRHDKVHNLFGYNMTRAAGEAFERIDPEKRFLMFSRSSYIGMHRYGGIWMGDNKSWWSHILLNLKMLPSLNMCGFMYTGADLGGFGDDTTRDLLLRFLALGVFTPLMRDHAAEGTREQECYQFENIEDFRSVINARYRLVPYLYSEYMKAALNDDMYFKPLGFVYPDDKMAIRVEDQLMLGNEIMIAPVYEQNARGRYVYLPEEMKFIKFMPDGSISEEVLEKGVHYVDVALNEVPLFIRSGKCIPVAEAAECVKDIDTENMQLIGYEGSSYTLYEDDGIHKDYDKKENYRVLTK
# Protocol: The kinetic studies for PTP1B and α-glucosidase were carried out under the same conditions described in the references.
# [10] = Week 5 (day 1 of treatment), oral, glibenclamide 0.6, FC-114 51.3, FC-122 49.1, PIO 30, acarbose 54.3 mg/kg/day
# [11] = Week 6 (day 7 of treatment), same doses
# [12] = Week 7 (day 14 of treatment), same doses
smiles,measurement,setting,value
"CC1(C)[C@@H](O)CC[C@]2(C)[C@H]3C(=O)C=C4[C@@H]5C[C@@](C)(C(=O)O)CC[C@]5(C)CC[C@@]4(C)[C@]3(C)CC[C@@H]12 [GA, glycyrrhetinic acid]",insulin levels,[1]; 100 mg/kg,increase in insulin levels
same,"plasma TAG, total cholesterol, HDL, VLDL, LDL",[1]; 100 mg/kg,restored normal levels
same,blood glucose and insulin levels,"[1]; oral 100 mg/kg, compared with glibenclamide 600 μg/kg",improved blood glucose and insulin levels
same,CC50 at 48 h,[2],62 ± 2 µM
same,LD50,[3],610 mg/kg
"CC1(C)[C@@H](O[C@H]2O[C@H](C(=O)O)[C@@H](O)[C@H](O)[C@H]2O[C@@H]2O[C@H](C(=O)O)[C@@H](O)[C@H](O)[C@H]2O)CC[C@]2(C)[C@H]3C(=O)C=C4[C@@H]5C[C@@](C)(C(=O)O)CC[C@]5(C)CC[C@@]4(C)[C@]3(C)CC[C@@H]12 [GL, glycyrrhizic acid]",dose considered safe,[4],less than 100 mg/day
"CCc1ccc(CCOc2ccc(CC3SC(=O)NC3=O)cc2)nc1 (stereo not shown) [PIO, pioglitazone]",effective doses to cause decreases in blood glucose,[5],15 to 45 mg/kg
same,AUC of the OGTT,[6]; [10],"49,677"
same,AUC of the OGTT,[6]; [11],"43,584"
same,AUC of the OGTT,[6]; [12],"40,044"
same,glucose blood levels in OGTT compared to untreated animals,[6],significantly improved
same,effectiveness in lowering blood glucose during the glucose tolerance curve (AUC),[6]; week 7,most effective
same,animal weight compared to the untreated group (T2D),[7],difference in weight
C[C@H]1O[C@H](O[C@H]2[C@H](O)[C@@H](O)[C@@H](O[C@H]3[C@H](O)[C@@H](O)C(O)O[C@@H]3CO)O[C@@H]2CO)[C@H](O)[C@@H](O)[C@@H]1N[C@H]1C=C(CO)[C@@H](O)[C@H](O)[C@H]1O (stereo partly shown) [acarbose],effective doses to cause decreases in blood glucose,[5],75 to 300 mg/kg
same,fasting glucose levels,[8],downward trend
same,AUC of the OGTT,[6]; [10],"81,327"
same,AUC of the OGTT,[6]; [11],"81,507"
same,AUC of the OGTT,[6]; [12],"71,240"
same,Inhibition type (α-glucosidase),[9]; Lineweaver-Burk plots,competitive
same,Ki,"[9]; substrate pNPG, Lineweaver-Burk",26.8 µM
COc1ccc(Cl)cc1C(=O)NCCc1ccc(S(=O)(=O)NC(=O)NC2CCCCC2)cc1 [glibenclamide],fasting glucose levels,[8],downward trend
same,AUC of the OGTT,[6]; [10],"62,022"
same,AUC of the OGTT,[6]; [11],"67,311"
same,AUC of the OGTT,[6]; [12],"50,874"
same,glucose blood levels in OGTT compared to untreated animals,[6],ranked second
